“Also recorded” adds a separate entry of the source.
Target: T1, Cdk2(ES) (Homo sapiens, UniProt P24941, C177A/F80C)
T1 construct: GST (N, cleaved yes); made in house; host or cells: E. coli Tuner(DE3)
Test: intact-protein mass spectrometry of covalent modification
Type: binding
Conditions: 0.5 mM acrylamide; 2 h for acrylamide 1
Source text: To orthogonally validate the results from the qIT assay, we undertook a mass spectrometric study to obtain a direct measurement of both the extent and site of covalent fragment modification. […] To confirm C80 as the site of modification, the 1‐Cdk2(ES) complex was digested with trypsin and the resulting peptides analysed by MALDI mass spectrometry. […] Tandem mass spectrometric analysis of this ion enabled confirmatory sequencing of the peptide and unambiguous assignment of C80 as the site of modification (Figure 4b).
See High-Throughput Kinetic Analysis for Target-Directed Covalent Ligand Discovery for full library details.4 In brief, Acryla-mide fragments were synthesized from amine precursors; 14,000 primary and secondary amines were selected from Enamine’s commercial collection with molecular weight < 250 Da, from which 235 unique Bemis-Murcko frameworks were generated.[5] […] The physiochemical properties of the final library were calculated using DataWarrior[6] and found to broadly comply with the ‘Rule of 3’ guidelines. […]
Reaction-plate setup: Each well of a 96-well PCR plate was charged with 60–100 µL of target thiol (GSH or protein, 10 µM) and 4% w/v TCEP-agarose beads in 100 mM phosphate buffer (pH 7.5 or 8) and cooled to 4 °C. […] For each time point, the fluorescence of each reaction was normalized relative Cdk2(ES)/GSH only control = maximum signal, DMSO only = minimum signal. […]

Compound	covalent modification of Cdk2(ES)
C=CC(=O)Nc1ccc(-c2ncccn2)cc1 [S1]	complete mono‐modification
C=CC(=O)N1CCCc2cc(C(=O)OC)ccc21 [compound 1]	fully modifies; also recorded: complete mono‐modification

From article PMC7754465, “Multiparameter Kinetic Analysis for Covalent Fragment Optimization by Using Quantitative Irreversible Tethering (qIT)” (Chembiochem, 2020)
